Here are results for 38 compounds from ChEMBL document CHEMBL4483862, “Open-source discovery of chemical leads for next-generation chemoprotective antimalarials” (2018).

For this assay, the system named is Plasmodium berghei. Put plainly: Luciferase/luciferin-expressing antifolate-resistant parasites were used to infect a culture of HepG2 cells that were pre-incubated with compounds. Infected hepatocytes emit light due to the luciferase reaction. Assay results are presented as the percent inhibition of light emission compared to control. […]. Particulars: sporozoite; for IC90: read-out: LUCIFERASE INFECTION ASSAY - IC90. It is filed as functional.

[1] abbreviates: read-out: LUCIFERASE INFECTION ASSAY - IC50.

SMILES strings stand for the structures. Bounds are passed on as bounds.

As for `O=C(Nc1nccs1)c1cc(-c2ccccc2)c(C(F)(F)F)s1`, the concentration for an effect of 90% (IC90) (in general, the concentration at which the effect reaches the 90% level) worked out at 8.66 µM. The IC50 (as a rule, the concentration needed to halve the response being measured) (HEPG2TOX_HILL_SLOPE 4.77, HEPG2TOX_R_SQUARED 0.804, PBLUC_HILL_SLOPE 25.8, PBLUC_R_SQUARED 0.401, read-out: LUCIFERASE INFECTION ASSAY - IC50) is 7.96 µM.
Take `CC(C(=O)Nc1cc([N+](=O)[O-])ccc1Cl)N(C)CC(=O)Nc1ccc(Cl)c(C(F)(F)F)c1` (stereo not given): the IC90 is more than 10 µM. For the same compound, the IC50 (HEPG2TOX_HILL_SLOPE 0.377, HEPG2TOX_R_SQUARED 0.303, read-out: LUCIFERASE INFECTION ASSAY - IC50) was more than 10 µM.
In the case of `Cc1ccc(-c2csc(Nc3ccccn3)n2)c(C)c1`, the IC90 was more than 10 µM. Further, under “HEPG2TOX_HILL_SLOPE 8.07, HEPG2TOX_R_SQUARED 0.196, PBLUC_HILL_SLOPE 0.693, PBLUC_R_SQUARED 0.516, read-out: LUCIFERASE INFECTION ASSAY - IC50”, the IC50 was found to be 0.441 µM.
Take `CCN(Cc1ccccc1)C(=O)c1cc(-c2ccccc2)nc2c1cnn2CC`: the IC90 was more than 10 µM. Besides, the IC50 under setting [1] is more than 10 µM.
In the case of `O=C(Nc1ccc(Cl)cc1)Nc1cc(Cl)sc1Cl`, the 90% effect concentration (IC90) amounted to 3.79 µM. Also, under setting [1], the IC50 amounted to 3.09 µM.
In the case of `CCN(CC)Cc1nc(Oc2ccc(C)cc2OC)c2c(C)c(C)sc2n1`, the IC90 is more than 10 µM. Moreover, the half-inhibitory concentration (IC50) (HEPG2TOX_HILL_SLOPE 7.2, HEPG2TOX_R_SQUARED 0.121, read-out: LUCIFERASE INFECTION ASSAY - IC50) is more than 10 µM.
On to `O=C(CNC(=O)c1ccc(N2CCCC2=O)cc1)NCCCn1cccn1`, for which the concentration for an effect of 90% (IC90) is more than 10 µM. In addition, the IC50 under setting [1] was more than 10 µM.
For the compound `CN(C)CCCNC(=O)c1ccc(-c2cn3c(-c4ccc(Cl)cc4)cnc3cn2)cc1`, the IC90 came to 3.76 µM. Moreover, the IC50 (HEPG2TOX_HILL_SLOPE 3.47, HEPG2TOX_R_SQUARED 0.818, PBLUC_HILL_SLOPE 9.43, PBLUC_R_SQUARED 0.518, read-out: LUCIFERASE INFECTION ASSAY - IC50) is 2.98 µM.
Take `COc1cc(OC)cc(-c2cc3c(Nc4cccc(S(C)(=O)=O)c4)nccc3n2C)c1`: the concentration for an effect of 90% (IC90) was more than 10 µM. Under “PBLUC_HILL_SLOPE 2.63, PBLUC_R_SQUARED 0.0611, read-out: LUCIFERASE INFECTION ASSAY - IC50”, the IC50 was 6.92 µM.
`CC1CCc2c(C(=O)Nc3cccc(Br)c3)csc2C1` (stereo not given): the IC90 is more than 9.42 µM. Further, the IC50 (PBLUC_HILL_SLOPE 12.9, PBLUC_R_SQUARED 0.0655, read-out: LUCIFERASE INFECTION ASSAY - IC50) came to 9.3 µM.
In the case of `Cc1cccc(/C=C2\SC(=O)N(CCC(=O)Nc3ccc(-c4nnc5n4CCCCC5)cc3)C2=O)c1`, the IC90 was more than 10 µM. Under setting [1], the IC50 is more than 10 µM.
As for `C#Cc1cccc(NC(=O)c2ccc(C(C)(C)C)s2)c1`, the 90% effect concentration (IC90) came out at 8.24 µM. Also, where the note is “FFLUC_HILL_SLOPE 0.741, FFLUC_R_SQUARED 0.211, PBLUC_HILL_SLOPE 2.38, PBLUC_R_SQUARED 0.594, read-out: LUCIFERASE INFECTION ASSAY - IC50”, the IC50 turned out to be 3.28 µM.
Turning to `C=S(NC(=O)c1ccc(Cl)cc1)c1sc(C(=O)OCC)c2c1C(=O)CCC2` (stereo not given), the 90% effect concentration (IC90) is more than 7.78 µM. Besides, the IC50 (PBLUC_HILL_SLOPE 23.8, PBLUC_R_SQUARED 0.121, read-out: LUCIFERASE INFECTION ASSAY - IC50) is more than 7.78 µM.
On to `COc1cc(OC)cc(C(NS(=O)(=O)c2cc(C(F)(F)F)ccc2Cl)c2nccn2C)c1` (stereo not given), for which the IC90 is more than 10 µM. For the same compound, the IC50 (PBLUC_HILL_SLOPE 9.29, PBLUC_R_SQUARED 0.399, read-out: LUCIFERASE INFECTION ASSAY - IC50) is 8.07 µM.
Consider `COc1ccc(-c2cnn3ccc(NCc4cccnc4)nc23)cc1OC`, for which the concentration for an effect of 90% (IC90) is 5.49 µM. Besides, the half-maximal inhibitory concentration (IC50) (HEPG2TOX_HILL_SLOPE 1.45, HEPG2TOX_R_SQUARED 0.956, PBLUC_HILL_SLOPE 2.78, PBLUC_R_SQUARED 0.698, read-out: LUCIFERASE INFECTION ASSAY - IC50) worked out at 2.49 µM.
Turning to `NC(=O)NC(CC(=O)Nc1ccc2c(c1)-c1ccccc1C2)c1ccccc1` (stereo not given), the concentration for an effect of 90% (IC90) was more than 10 µM. Also, under “HEPG2TOX_HILL_SLOPE 11.3, HEPG2TOX_R_SQUARED 0.75, PBLUC_HILL_SLOPE 2.98, PBLUC_R_SQUARED 0.106, read-out: LUCIFERASE INFECTION ASSAY - IC50”, the 50% inhibitory concentration (IC50) came out at 6.7 µM.
`Cc1ccccc1-c1cn2c(-c3ccc(N(C)C)cc3)cnc2cn1`: the concentration for an effect of 90% (IC90) was more than 10 µM.
With `CC(C)Cc1ccc(CN2CCC3(CC2)C(=O)N(CC(C)C)C(=O)N3C)cc1`, the 90% effect concentration (IC90) is more than 8.56 µM. The IC50 (HEPG2TOX_HILL_SLOPE 2.88, HEPG2TOX_R_SQUARED 0.972, PBLUC_HILL_SLOPE 3.02, PBLUC_R_SQUARED 0.492, read-out: LUCIFERASE INFECTION ASSAY - IC50) worked out at 5.03 µM.
On to `CCCCNC(=O)c1c(NC(=O)c2cc(F)cc(F)c2)nc2ccccn12`, for which the IC90 amounted to 1.17 µM. The 50% inhibitory concentration (IC50) (FFLUC_HILL_SLOPE 9.87, FFLUC_R_SQUARED 0.392, HEPG2TOX_HILL_SLOPE 0.611, HEPG2TOX_R_SQUARED 0.894, PBLUC_HILL_SLOPE 4.02, PBLUC_R_SQUARED 0.616, read-out: LUCIFERASE INFECTION ASSAY - IC50) was 0.679 µM.
In the case of `Cc1ccc(S(=O)(=O)Oc2ccc(Cl)cc2Sc2cc(Cl)ccc2OS(=O)(=O)c2ccc(C)cc2)cc1`, the IC90 is more than 5.54 µM. For the same compound, the IC50 under setting [1] was more than 5.54 µM.
`C/C(=N\NC(=S)NC(C)(C)C)c1cc(F)cc(Cl)c1O`: the IC90 worked out at 4.66 µM. Also, the IC50 (FFLUC_HILL_SLOPE 2.86, FFLUC_R_SQUARED 0.466, HEPG2TOX_HILL_SLOPE 2.1, HEPG2TOX_R_SQUARED 0.731, PBLUC_HILL_SLOPE 9.8, PBLUC_R_SQUARED 0.522, read-out: LUCIFERASE INFECTION ASSAY - IC50) is 3.72 µM.
As to `Cn1c(NCc2ccccc2F)nc2cnc(Nc3cccc(OC(F)(F)F)c3)cc21`, the IC90 is more than 10 µM. Also, under setting [1], the half-maximal inhibitory concentration (IC50) was more than 10 µM.
Turning to `COc1cc(C(=O)NCC(c2ccco2)N2CCCCC2)ccc1Oc1ccc(Cl)cc1[N+](=O)[O-]` (stereo not given), the IC90 was more than 10 µM. Under setting [1], the half-inhibitory concentration (IC50) was 5.95 µM.
In the case of `c1csc(-c2cn3c(-c4ccc5ncccc5c4)cnc3cn2)c1`, the 90% effect concentration (IC90) stood at 8.95 µM. The concentration for half-maximal inhibition (IC50) (HEPG2TOX_HILL_SLOPE 2.44, HEPG2TOX_R_SQUARED 0.922, PBLUC_HILL_SLOPE 1.55, PBLUC_R_SQUARED 0.705, read-out: LUCIFERASE INFECTION ASSAY - IC50) was 2.17 µM.
Consider `Cc1ccc(-n2nc(C)c(NC(=O)Cn3c(NCc4ccccc4)nc4ccccc43)c2C)cc1`, for which the IC90 is more than 10 µM. Moreover, under setting [1], the concentration for half-maximal inhibition (IC50) was more than 10 µM.
Turning to `CCCNc1cc(-c2ccccc2)nc(-n2nc(C)cc2C)n1`, the 90% effect concentration (IC90) is 4.24 µM. Also, the IC50 (PBLUC_HILL_SLOPE 8.43, PBLUC_R_SQUARED 0.511, read-out: LUCIFERASE INFECTION ASSAY - IC50) amounted to 3.27 µM.
On to `COc1cc(CNc2nccc3nc(-c4ccccc4Cl)[nH]c23)cc(OC)c1OC`, for which the IC90 was more than 10 µM. For the same compound, the half-maximal inhibitory concentration (IC50) under setting [1] is 8.57 µM.
For `CN(C)CCCOc1ccc(-c2nnc3ccc(-c4cccc(Oc5ccccc5)c4)cn23)cc1`, the concentration for an effect of 90% (IC90) was more than 10 µM. The half-inhibitory concentration (IC50) (PBLUC_HILL_SLOPE 15.3, PBLUC_R_SQUARED 0.363, read-out: LUCIFERASE INFECTION ASSAY - IC50) worked out at 9.36 µM.
As to `Brc1ccc(-c2cc(-c3ccccc3)cc(-c3ccccc3)n2)cc1`, the IC90 was more than 8.54 µM. In addition, under setting [1], the IC50 is more than 8.54 µM.
`O=C(CSc1cccc[n+]1[O-])Nc1ccccc1OC(F)F`: the IC90 is more than 10 µM. Moreover, the half-inhibitory concentration (IC50) under setting [1] was more than 10 µM.
With `Cc1nc(N/N=C/c2ccc(O)cc2)c2cnn(-c3ccccc3)c2n1`, the IC90 was more than 10 µM. The half-maximal inhibitory concentration (IC50) under setting [1] was more than 10 µM.
For the compound `CC(=O)c1cccc(-c2cnc3ccc(-c4cccc(Oc5ccccc5)c4)nn23)c1`, the IC90 was more than 10 µM. In addition, the concentration for half-maximal inhibition (IC50) (HEPG2TOX_HILL_SLOPE 0.164, HEPG2TOX_R_SQUARED 0.772, PBLUC_HILL_SLOPE 1.12, PBLUC_R_SQUARED 0.566, read-out: LUCIFERASE INFECTION ASSAY - IC50) worked out at 1.9 µM.
For the compound `OC(c1cc(F)c(F)c(F)c1)c1nnc(Nc2cccc(Cl)c2)s1` (stereo not given), the IC90 was more than 10 µM. Further, the IC50 under setting [1] was more than 10 µM.
As for `CCc1sc(C(=O)Nc2ccc(F)c(Cl)c2)cc1C`, the concentration for an effect of 90% (IC90) came out at 8.57 µM. Further, where the note is “PBLUC_HILL_SLOPE 228, PBLUC_R_SQUARED 0.104, read-out: LUCIFERASE INFECTION ASSAY - IC50”, the IC50 stood at 8.49 µM.
Regarding `O=[N+]([O-])c1cccc2nc(/C=C/c3nn(Cc4ccccc4)cc3-c3cccnc3)ccc12`, the IC90 was more than 10 µM. The IC50 under setting [1] is more than 10 µM.
As for `Cc1ccc(NC(=O)NC(=O)c2c(-c3snnc3C)noc2C)cc1`, the IC90 is more than 9.23 µM. In addition, the IC50 (HEPG2TOX_HILL_SLOPE 1.11, HEPG2TOX_R_SQUARED 0.954, PBLUC_HILL_SLOPE 1.54, PBLUC_R_SQUARED 0.355, read-out: LUCIFERASE INFECTION ASSAY - IC50) came to 2.53 µM.
Take `CCOc1ccc(C(C)=O)cc1CSc1nc2ccccc2c(=O)n1C(C)COC` (stereo not given): the concentration for an effect of 90% (IC90) was 3.98 µM. In addition, the concentration for half-maximal inhibition (IC50) (HEPG2TOX_HILL_SLOPE 2.93, HEPG2TOX_R_SQUARED 0.419, PBLUC_HILL_SLOPE 1.84, PBLUC_R_SQUARED 0.699, read-out: LUCIFERASE INFECTION ASSAY - IC50) turned out to be 1.21 µM.
As to `OC(c1cc(F)c(F)c(F)c1)c1nnc(Nc2ccc(F)c(Cl)c2)s1` (stereo not given), the IC90 is more than 10 µM. Moreover, the IC50 (FFLUC_HILL_SLOPE 0.27, FFLUC_R_SQUARED 0.307, PBLUC_HILL_SLOPE 3.7, PBLUC_R_SQUARED 0.113, read-out: LUCIFERASE INFECTION ASSAY - IC50) was 8.96 µM.
